Measured values published in patent US20240156140A1, “AMIDE COMPOUNDS AND THEIR USE AS FLAVOR MODIFIERS” (Firmenich Incorporated, priority 2021, published 2024).

Molecular target: T1, T1R umami taste receptor (Homo sapiens, UniProt Q7RTX0+Q7RTX1)
T1 sequence (Q7RTX1 21-841): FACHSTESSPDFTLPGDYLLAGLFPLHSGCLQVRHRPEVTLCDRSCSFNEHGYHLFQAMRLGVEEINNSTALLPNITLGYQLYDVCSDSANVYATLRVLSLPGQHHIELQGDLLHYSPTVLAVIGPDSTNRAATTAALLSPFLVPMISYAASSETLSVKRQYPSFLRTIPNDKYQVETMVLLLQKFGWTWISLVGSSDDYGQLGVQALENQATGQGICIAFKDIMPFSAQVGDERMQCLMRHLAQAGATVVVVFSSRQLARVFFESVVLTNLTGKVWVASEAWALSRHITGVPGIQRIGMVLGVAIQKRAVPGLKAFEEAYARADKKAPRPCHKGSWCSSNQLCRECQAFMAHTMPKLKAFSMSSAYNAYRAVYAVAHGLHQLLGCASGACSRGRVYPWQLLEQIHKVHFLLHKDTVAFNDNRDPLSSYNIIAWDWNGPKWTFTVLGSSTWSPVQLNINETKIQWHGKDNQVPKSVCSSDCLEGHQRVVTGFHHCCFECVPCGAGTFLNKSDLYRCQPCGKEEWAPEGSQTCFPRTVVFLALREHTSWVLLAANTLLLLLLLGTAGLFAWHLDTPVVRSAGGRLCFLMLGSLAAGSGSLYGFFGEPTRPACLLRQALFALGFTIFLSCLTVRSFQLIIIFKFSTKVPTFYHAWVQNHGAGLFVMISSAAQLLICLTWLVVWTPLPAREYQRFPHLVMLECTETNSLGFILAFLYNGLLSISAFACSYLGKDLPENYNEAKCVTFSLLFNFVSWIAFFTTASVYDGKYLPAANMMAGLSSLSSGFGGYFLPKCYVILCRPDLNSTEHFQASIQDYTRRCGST
T1 sequence (Q7RTX0 21-852): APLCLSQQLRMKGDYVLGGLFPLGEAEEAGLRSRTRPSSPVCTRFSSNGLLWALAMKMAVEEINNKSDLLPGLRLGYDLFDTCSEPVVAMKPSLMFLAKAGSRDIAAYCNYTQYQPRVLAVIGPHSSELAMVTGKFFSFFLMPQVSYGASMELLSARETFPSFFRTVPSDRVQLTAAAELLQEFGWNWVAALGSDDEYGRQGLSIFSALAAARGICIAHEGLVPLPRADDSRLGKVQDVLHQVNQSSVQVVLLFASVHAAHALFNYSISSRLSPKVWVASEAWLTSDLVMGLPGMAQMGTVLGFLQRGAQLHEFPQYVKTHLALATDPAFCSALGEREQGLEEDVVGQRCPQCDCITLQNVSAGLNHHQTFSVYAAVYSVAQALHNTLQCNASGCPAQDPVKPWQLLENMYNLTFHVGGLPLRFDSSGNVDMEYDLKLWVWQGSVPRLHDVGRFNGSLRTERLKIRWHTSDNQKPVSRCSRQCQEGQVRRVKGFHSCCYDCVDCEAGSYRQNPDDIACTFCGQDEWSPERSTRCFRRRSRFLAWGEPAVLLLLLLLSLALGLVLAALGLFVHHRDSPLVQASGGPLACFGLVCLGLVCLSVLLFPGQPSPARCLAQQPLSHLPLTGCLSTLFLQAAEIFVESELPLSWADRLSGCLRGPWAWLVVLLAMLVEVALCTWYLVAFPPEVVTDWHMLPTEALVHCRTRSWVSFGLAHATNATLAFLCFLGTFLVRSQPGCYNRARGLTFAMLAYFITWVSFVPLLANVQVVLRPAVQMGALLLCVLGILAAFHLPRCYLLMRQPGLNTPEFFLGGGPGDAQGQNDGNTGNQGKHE
Experiment: in vitro cell-based assay, enhancement of MSG binding
Details: cells that express the T1R umami taste receptor
Procedure: Each of the compounds set forth in Table 2 were synthesized according to one of the general procedures set forth above in Example 1 or 2. Thereafter, the compounds were tested in an in vitro cell-based assay having cells that express the T1R umami taste receptor. Dose-binding curves were recorded and the EC50 was determined for enhancement of MSG binding. Table 2 sets forth the calculated EC50 values for certain tested compounds.

## CCOC(=O)[C@H](CCCNC(=O)c1ccccc1)NC(=O)c1ccccc1 [Compound 103]
  EC50: 2000 nM

## COC(=O)[C@H](CCCNC(=O)c1ccccc1)NC(=O)c1ccccc1 [Compound 102]
  EC50: 30000 nM

## C/C=C(\C)C(=O)NCCC[C@H](NC(=O)c1cc(C)c(C)c(C)c1)C(=O)OCC [Compound 115]
  EC50: 40 nM

## C/C=C(\C)C(=O)NCCC[C@H](NC(=O)c1ccc(C)cc1)C(=O)OC [Compound 108]
  EC50: 2500 nM

## C/C=C(\C)C(=O)NCCC[C@H](NC(=O)c1ccc(C)c(C)c1)C(=O)OCC [Compound 113]
  EC50: 500 nM

## O=C(NCCC[C@H](NC(=O)c1ccccc1)C(=O)O)c1ccccc1 [Compound 101]
  EC50: > 50000 nM

## C/C=C(\C)C(=O)NCCC[C@H](NC(=O)/C=C/c1ccc(OC)cc1)C(=O)OCC [Compound 129]
  EC50: 60 nM

## C/C=C(\C)C(=O)NCCC[C@H](NC(=O)/C=C/c1ccc(OC)cc1OC)C(=O)OC [Compound 132]
  EC50: 100 nM

## C/C=C(\C)C(=O)NCCC[C@H](NC(=O)c1ccccc1)C(=O)OCC [Compound 107]
  EC50: 8000 nM

## CCOC(=O)[C@H](CCCNC(=O)c1ccc2c(c1)OCO2)NC(=O)c1ccc2c(c1)OCO2 [Compound 105]
  EC50: 35000 nM

## C/C=C(\C)C(=O)NCCC[C@H](NC(=O)c1ccc(C)cc1)C(=O)OCC [Compound 109]
  EC50: 1500 nM

## C/C=C(\C)C(=O)NCCC[C@H](NC(=O)c1ccc(OC)cc1)C(=O)OCC [Compound 111]
  EC50: 400 nM

## C/C=C(\C)C(=O)NCCC[C@H](NC(=O)/C=C/c1ccccc1)C(=O)OC [Compound 122]
  EC50: 200 nM

## C/C=C(\C)C(=O)NCCC[C@H](NC(=O)c1ccc(C)c(C)c1)C(=O)OC [Compound 112]
  EC50: < 100 nM

## C/C=C(\C)C(=O)NCCC[C@H](NC(=O)/C=C/c1ccccc1)C(=O)OCC [Compound 123]
  EC50: 600 nM

## C/C=C(\C)C(=O)NCCC[C@H](NC(=O)/C=C/c1ccccc1OC)C(=O)OC [Compound 124]
  EC50: 500 nM

## C/C=C(\C)C(=O)NCCC[C@H](NC(=O)c1cc(C)c(C)c(C)c1)C(=O)OC [Compound 114]
  EC50: 400 nM

## CCOC(=O)[C@H](CCCNC(=O)c1ccc(C)c(C)c1)NC(=O)c1ccc(C)c(C)c1 [Compound 104]
  EC50: 14000 nM

## C/C=C(\C)C(=O)NCCC[C@H](NC(=O)c1ccc(OC)cc1)C(=O)OC [Compound 110]
  EC50: 700 nM

## C/C=C(\C)C(=O)NCCC[C@H](NC(=O)c1ccc2c(c1)OCO2)C(=O)OCC [Compound 121]
  EC50: 500 nM

## C/C=C(\C)C(=O)NCCC[C@H](NC(=O)/C=C/c1ccc(OC)cc1)C(=O)OC [Compound 128]
  EC50: 640 nM

## C/C=C(\C)C(=O)NCCC[C@H](NC(=O)/C=C/c1ccc(OC)cc1OC)C(=O)OCC [Compound 133]
  EC50: 400 nM

## C/C=C(\C)C(=O)NCCC[C@H](NC(=O)c1ccccc1)C(=O)OC [Compound 106]
  EC50: 3500 nM
